Assay [1] deals with Trypanosoma brucei. Description: Antiprotozoal activity against Trypanosoma brucei. It is filed as functional, organism-based.
Assay [2] is described as follows: Inhibition of Trypanosoma brucei MetRS.
Assay [3] addresses T1, Trypanothione reductase (Trypanosoma cruzi, UniProt P28593). Description: Inhibition of Trypanosoma cruzi TryR assessed as inhibition constant in presence of NADPH.
Assay [4] concerns Leishmania braziliensis. Description: Antiprotozoal activity against Leishmania braziliensis 2903 strain […] assessed as […] at 10 ug/ml relative to control. Type of assay: functional. To be noted: dose 10 µg/ml.
The test system of assay [5] is Leishmania amazonensis. The assay can be described thus: Antiprotozoal activity against Leishmania amazonensis PH8 strain […] assessed as […] at 10 ug/ml relative to control. It is filed as functional. The conditions noted are these: dose 10 µg/ml.
The subject of assay [6] is Leishmania donovani. The assay can be described thus: Antiprotozoal activity against Leishmania donovani PP75 strain […] assessed as […] at 10 ug/ml relative to control. It is filed as functional. To be noted: dose 10 µg/ml.
Assay [7] deals with Leishmania donovani. The assay can be described thus: Antiprotozoal activity against Leishmania donovani. Type of assay: functional, organism-based.
Assay [8] relates to Trypanosoma brucei rhodesiense. Description: Antiprotozoal activity against Trypanosoma brucei rhodesiense. It is filed as functional, organism-based.
A further assay concerns Trypanosoma cruzi. The assay can be described thus: Antiprotozoal activity against Trypanosoma cruzi. Type of assay: functional, organism-based.
The subject of assay [9] is Leishmania amazonensis. Description: Antiprotozoal activity against Leishmania amazonensis promastigotes measured after 48 hrs by MTT assay. Type of assay: functional, organism-based. A general note: Tetrazolium dyes change colour on reduction, which living cells bring about.
Assay [10] concerns Leishmania donovani. The assay can be described thus: Antiprotozoal activity against Leishmania donovani promastigotes. Type of assay: functional, organism-based.
Assay [11] deals with T1, Trypanothione reductase. The assay can be described thus: Inhibition of Trypanosoma cruzi TryR assessed as inhibition constant.
Assay [12] has as its system Leishmania amazonensis. Description: Antiprotozoal activity against Leishmania amazonensis measured after 3 days by MTT assay. Type of assay: functional, organism-based. The conditions noted are these: 72 h.
The test system of the next assay is Leishmania chagasi. Description: Antiprotozoal activity against Leishmania chagasi measured after 3 days by MTT assay. Type of assay: functional, organism-based. The conditions noted are these: 72 h.
Assay [13] can be described thus: Inhibition of TryR (unknown origin) assessed as inhibition constant. Further details: species or system Bacteria.
Assay [14] deals with Leishmania donovani. The assay can be described thus: Antiprotozoal activity against Leishmania donovani amastigotes assessed as growth inhibition measured after 7 days relative to control. Type of assay: functional. The conditions noted are these: time 7 day.
In assay [15] the target is Glutathione reductase, mitochondrial (Homo sapiens, UniProt P00390). The assay can be described thus: Inhibition of human glutathione reductase.
Assay [16] has as its target T1, Trypanothione reductase. Description: Inhibition of Trypanosoma cruzi TryR.
In the next assay the test system is Bacteria. Description: Inhibition of TryR (unknown origin) at 10 uM relative to control.
Assay [17] relates to Leishmania donovani. Description: Antiprotozoal activity against Leishmania donovani MHOM/SD/00/1S-2D strain promastigotes assessed as parasitic death. Type of assay: functional, organism-based.
For assay [18], the system named is Leishmania donovani. The assay can be described thus: Antiprotozoal activity against Leishmania donovani MHOM/SD/00/1S-2D strain promastigotes assessed as parasitic death at 10 uM relative to control. Type of assay: functional.
Assay [19] has as its target Trypanothione reductase (Trypanosoma brucei brucei, UniProt P39051). The assay can be described thus: Inhibition of Trypanosoma brucei TryR assessed as inhibition constant.
Assay [20] has as its system Trypanosoma brucei. The assay can be described thus: Trypanocidal activity against Trypanosoma brucei K 243 strain. Type of assay: functional, organism-based.
Assay [21] has as its system Trypanosoma brucei. Description: Trypanocidal activity against Trypanosoma brucei K 269 strain. It is filed as functional, organism-based.
Assay [22] concerns Trypanosoma brucei. Description: Trypanocidal activity against Trypanosoma brucei K 243-As-10-3 strain. Type of assay: functional, organism-based.
Assay [23] has as its system Trypanosoma brucei. The assay can be described thus: Trypanocidal activity against Trypanosoma brucei Lab 110 strain. It is filed as functional, organism-based.
Assay [24] deals with Leishmania braziliensis. Description: Antiprotozoal activity against Leishmania braziliensis MHOM/PE/84/LC26 amastigotes infected in mouse J774.2 cells measured after 72 hrs. Type of assay: functional, organism-based. To be noted: J774.2, 72 h.
Assay [25] concerns Trypanosoma brucei brucei. The assay can be described thus: Antiprotozoal activity against Trypanosoma brucei brucei. It is filed as functional, organism-based.
The test system of the next assay is Trypanosoma. The assay can be described thus: Inhibition of Trypanosomal TryS at 10 uM relative to control.

T1 sequence (P28593 whole entry): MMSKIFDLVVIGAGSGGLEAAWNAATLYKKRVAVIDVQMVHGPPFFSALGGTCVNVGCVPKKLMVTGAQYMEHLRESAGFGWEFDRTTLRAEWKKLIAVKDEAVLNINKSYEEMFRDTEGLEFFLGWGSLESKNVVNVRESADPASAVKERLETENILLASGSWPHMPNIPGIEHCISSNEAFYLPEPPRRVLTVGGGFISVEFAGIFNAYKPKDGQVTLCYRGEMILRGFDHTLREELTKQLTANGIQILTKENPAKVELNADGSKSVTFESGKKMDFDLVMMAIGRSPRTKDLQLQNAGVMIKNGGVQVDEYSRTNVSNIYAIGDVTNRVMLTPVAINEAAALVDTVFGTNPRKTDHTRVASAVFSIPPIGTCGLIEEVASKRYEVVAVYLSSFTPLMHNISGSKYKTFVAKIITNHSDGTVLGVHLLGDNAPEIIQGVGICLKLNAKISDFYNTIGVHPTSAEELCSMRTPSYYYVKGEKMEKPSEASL
Chain of Trypanothione reductase (Trypanosoma brucei brucei, UniProt P39051) (P39051 whole entry): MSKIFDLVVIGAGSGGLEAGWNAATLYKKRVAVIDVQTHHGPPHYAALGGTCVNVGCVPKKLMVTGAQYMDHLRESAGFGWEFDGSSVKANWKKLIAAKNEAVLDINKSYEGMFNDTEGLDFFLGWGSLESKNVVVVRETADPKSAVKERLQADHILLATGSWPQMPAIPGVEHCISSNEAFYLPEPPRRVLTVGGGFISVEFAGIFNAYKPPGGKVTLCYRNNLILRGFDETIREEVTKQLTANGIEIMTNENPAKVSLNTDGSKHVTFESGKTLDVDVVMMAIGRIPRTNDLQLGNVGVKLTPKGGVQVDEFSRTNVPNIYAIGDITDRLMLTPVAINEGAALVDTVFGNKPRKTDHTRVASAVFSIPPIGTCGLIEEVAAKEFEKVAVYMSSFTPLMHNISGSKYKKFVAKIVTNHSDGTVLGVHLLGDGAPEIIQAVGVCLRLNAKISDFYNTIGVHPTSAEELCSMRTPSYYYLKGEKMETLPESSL
Chain of Glutathione reductase, mitochondrial (P00390 whole entry): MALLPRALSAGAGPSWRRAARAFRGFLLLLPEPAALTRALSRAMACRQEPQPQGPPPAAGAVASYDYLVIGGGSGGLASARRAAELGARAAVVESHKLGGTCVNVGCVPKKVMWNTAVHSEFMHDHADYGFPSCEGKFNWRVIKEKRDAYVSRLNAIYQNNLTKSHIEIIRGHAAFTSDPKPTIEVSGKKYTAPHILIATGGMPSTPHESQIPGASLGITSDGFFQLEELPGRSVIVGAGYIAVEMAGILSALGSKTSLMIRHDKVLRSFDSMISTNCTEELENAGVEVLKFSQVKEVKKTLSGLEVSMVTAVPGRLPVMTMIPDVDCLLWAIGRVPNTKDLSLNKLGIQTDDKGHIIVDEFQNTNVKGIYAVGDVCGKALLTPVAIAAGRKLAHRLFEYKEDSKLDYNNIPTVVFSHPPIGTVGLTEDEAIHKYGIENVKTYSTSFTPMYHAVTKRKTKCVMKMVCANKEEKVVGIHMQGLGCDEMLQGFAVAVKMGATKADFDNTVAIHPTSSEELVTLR

The term IC50 denotes the concentration that gives 50% inhibition. As to `Clc1cc(Cl)c2c(c1)[C@H](NCCCNc1nc3ncccc3[nH]1)CCN2`, the IC50 in the assay with Trypanosoma brucei [1] was 0.0004 µM; in assay [2], 0.002 µM.
A word on the Ki: it is the dissociation constant of the complex between target and ligand, obtained from inhibition or displacement. For the molecule `CC(=O)NCCCCNCCCNC(C)=O`, on Trypanothione reductase [3], the Ki is above 2000 µM.
Turning to `CCCCCCCCCCCCCCC(CN(CC)CC)NC(=O)OC(C)(C)C` (centres undefined), the Activity in the assay with Leishmania braziliensis [4], in the assay with Leishmania amazonensis [5] and with Leishmania donovani [6] was 80% throughout.
For the molecule `O=C(NCCCCNCCCNC(=O)C(F)(F)F)C(F)(F)F`, the Ki on Trypanothione reductase [3] was above 2000 µM.
`OCCn1c(CNCCCNc2nc3ccccc3[nH]2)cc2c(Cl)cc(Cl)cc21`: the values for the IC50 (with Trypanosoma brucei [1]; in [2]) were 0.001 µM and below 0.025 µM, respectively.
For the molecule `NCCCCNCCCNC(=O)C(=O)c1c[nH]c2cc(Br)ccc12`, the IC50 (in the assay on Leishmania donovani [7]; in [8]; in the assay with Trypanosoma cruzi) was above 40 µM in each case.
`CC(C)=CCC/C(C)=C/CC/C(C)=C/CNCCN` came in with a half-maximal inhibitory concentration (IC50) in the assay on Leishmania amazonensis [9] of 16.8 µM.
`NCCCN(Cc1ccc(OCc2ccc(Br)cc2)cc1)Cc1ccc(OCc2ccc(Br)cc2)cc1` displayed an IC50 with Leishmania donovani [10] below 1 µM.
`NCCCCN(CCCN)C(=O)OCc1ccccc1`: the Ki at Trypanothione reductase [11] was above 100 µM.
For `CCCCCCCCCCCCNCCCCN`, the IC50 in the assay on Leishmania amazonensis [12] is 5.13 µM; in the assay with Leishmania chagasi, 0.53 µM.
Take `CC(=O)c1ccc(Sc2ccccc2NCCCN(CCCN)CCCCN(CCCN)CCCNc2cc(Cl)ccc2Sc2ccc(C(C)=O)cc2)cc1`: the inhibitory constant (Ki) in assay [13] was determined as 0.4 µM.
In the case of `CN1CCN(CCCNCCC#N)CC1`, the “inhibition (INH)” value in the assay on Leishmania donovani [14] was 80%.
On to `NCCCNCCCCNCCCNCCCc1ccccc1`, for which the Ki on Trypanothione reductase [11] is 37 µM.
Turning to `Fc1ccc2[nH]c(NCCCNCc3cc(Cl)cc(Cl)c3)nc2n1`, the values for the IC50 (in the assay with Trypanosoma brucei [1]; in assay [2]) were 0.004 µM and 0.001 µM, respectively.
Consider `O=C(NCCCCNCCCNC(=O)c1cnc2cc(C(F)(F)F)ccc2c1O)c1cnc2cc(C(F)(F)F)ccc2c1O`, for which, in [13], the Ki is 0.85 µM.
In the case of `CCCNCCCNC(=O)CNC(=O)[C@H](CC(Br)C(Br)C[C@H](NC(=O)OCc1ccccc1)C(=O)NCC(=O)NCCCNCCC)NC(=O)OCc1ccccc1` (some centres undefined), the Ki at Trypanothione reductase [11] amounted to 15.9 µM.
In the assay with Leishmania amazonensis [9], `CC(C)=CCC/C(C)=C/CC/C(C)=C/CNCCCCN` displayed an IC50 of 15 µM.
`CCCCN(CCCC)CCCNC(=O)CCCCC1=C(C)C(=O)c2cccc(O)c2C1=O`: the IC50 in assay [15] was above 40 µM.
In turn, `CN1CCN(CCCNC(=O)CCCCCC2=C(CCCCCC(=O)NCCCN3CCN(C)CC3)C(=O)c3c(N)cccc3C2=O)CC1` had an IC50 at Trypanothione reductase [16] of 0.8 µM.
As a reminder, the inhibition is the percentage by which the read-out fell short of the control. For `O=C(Cc1c[nH]c2ccccc12)NCCCCNCCCNC(=O)Cc1c[nH]c2ccccc12`, the inhibition with Bacteria turned out to be 95%.
Take `CN1CCN(CCCNC(=O)/C=C/c2ccc3occ(/C=C/C(=O)NCCCN4CCN(C)CC4)c3c2)CC1`: in assay [13], the Ki came out at 3.5 µM.
For the molecule `COc1ccc2nc3cc(Cl)ccc3c(NCCCCN(CCCNc3c4ccc(Cl)cc4nc4ccc(OC)cc34)C(=O)[C@H](C)N)c2c1`, in the assay with Leishmania donovani [17], the IC50 stood at 1 µM. For the same molecule, in the assay with Leishmania donovani [18], the inhibition at 10 µM was 90%.
`NCCCCN(CCCN)Cc1ccc2ccccc2c1`: on Trypanothione reductase [11], the Ki is above 100 µM.
In the assay on Leishmania donovani [10], `COc1cc(CN(CCCN)Cc2ccc(OCc3ccccc3)c(OC)c2)ccc1OCc1ccccc1` displayed an IC50 below 1 µM.
For `NCCCN1CCN(CCCNC2=C(c3c[nH]c4ccccc34)C(=O)N(CCCN3CCN(CCCN)CC3)C2=O)CC1`, half-maximal inhibition against Trypanothione reductase [16] (IC50) was put at 5.4 µM.
On to `NCCCCNCCCNC(=O)C(=O)c1c[nH]c2ccccc12`, for which the half-inhibitory concentration (IC50) (with Leishmania donovani [7]; in assay [8]; in the assay on Trypanosoma cruzi) was above 40 µM in each case.
Consider `c1ccc(CCCNCCCNCCCCNCCCNCCCc2ccccc2)cc1`, for which the Ki at Trypanothione reductase [19] stood at 12 µM. The IC50 in the assay on Trypanosoma brucei [20], in the assay with Trypanosoma brucei [21], with Trypanosoma brucei [22] and with Trypanosoma brucei [23] was 1 µM in each case.
Consider `CN1CCN(CCC(=O)Nc2cc(Cl)ccc2Sc2cccc(NC(=O)CCCC(=O)Nc3cccc(Sc4ccc(Cl)cc4NC(=O)CCN4CCN(C)CC4)c3)c2)CC1`, for which the IC50 in the assay on Leishmania braziliensis [24] and on Trypanothione reductase [16] was 0.93 µM each time.
With `c1ccc(CCCNCCCN(CCCCN(CCCNCCCc2ccccc2)CCCc2ccccc2)CCCc2ccccc2)cc1`, on Trypanothione reductase [19], the Ki was 0.6 µM. In addition, the IC50 in the assay on Trypanosoma brucei [20], in the assay on Trypanosoma brucei [21], in the assay with Trypanosoma brucei [22] and in the assay with Trypanosoma brucei [23] was 0.1 µM each time.
On to `COC(=O)/N=C(\NCCCN1CCN(C)CC1)NC(=O)OC`, for which the “inhibition (INH)” value in the assay with Leishmania donovani [14] worked out at 85%.
`COc1ccc2c(C(=O)C(=O)NCCCNCCCCCCCCCCCCNCCCNC(=O)C(=O)c3c[nH]c4cc(OC)ccc34)c[nH]c2c1` showed an IC50 in assay [25] of 0.18 µM.
In the case of `NCCNC(=O)CN1C(=O)Cc2c([nH]c3ccc(Br)cc23)-c2ccccc21`, in the assay on Trypanosoma, the inhibition worked out at 80%.
Consider `COc1ccc2nc3cc(Cl)ccc3c(NCCCCNCCCNc3c4ccc(Cl)cc4nc4ccc(OC)cc34)c2c1`, for which the IC50 with Leishmania donovani [17] amounted to 1 µM. In addition, the inhibition at 10 µM in the assay on Leishmania donovani [18] is 90%.

Source of the values: ChEMBL document CHEMBL5260817, “Polyamine-based analogs and conjugates as antikinetoplastid agents” (Eur J Med Chem, 2017).
